Here are results for four molecules from ChEMBL document CHEMBL1158298, “Syringin 4-O-beta-glucoside, a new phenylpropanoid glycoside, and costunolide, a nitric oxide synthase inhibitor, from the stem bark of Magnolia sieboldii” (J Nat Prod, 1996).

What all share (type): cell-based
Data set [1] is described as follows: Cytotoxicity against mouse J774.1 cells assessed as cell viability after 48 hrs by MTT assay. As to conditions: read-out: Activity. Background: Tetrazolium assays rely on reduction of a dye to a coloured formazan, in cell work by metabolically active cells.
The test system of data set [2] is J774.1. Kind of data set: Inhibition of nitric oxides synthase in mouse J774.1 cells assessed as inhibition of LPS-induced NO release at 1 ug/mL after 48 hrs by Griess assay relative to control. Background: Nitrite, measured by Griess reagent, commonly stands in for NO production.
Data set [3] relates to J774.1. Kind of data set: Inhibition of nitric oxides synthase in mouse J774.1 cells assessed as inhibition of LPS-induced NO release at 100 ug/mL after 48 hrs by Griess assay relative to control.

Structures are written as SMILES.

`C=C1C(=O)O[C@@H]2/C=C(\C)CC/C=C(\C)CC[C@@H]12` [COSTUNOLIDE]: in data set [1], the viability at 48 h was 92%. The inhibition (as a rule, the share of the control response that was lost under treatment) in data set [2] worked out at 50.3%; in data set [3] it was 94.6%. Regarding `C[C@H]1O[C@H](O[C@@H]2[C@@H](O)[C@H](OCCc3ccc(O)c(O)c3)O[C@H](CO[C@H]3O[C@@H](CO)[C@H](O)[C@@H](O)[C@@H]3O)[C@H]2OC(=O)/C=C/c2ccc(O)c(O)c2)[C@@H](O)[C@@H](O)[C@@H]1O`, the inhibition in data set [3] was 10.4%. On to `COc1cc(/C=C/CO)cc(OC)c1O[C@@H]1O[C@H](CO)[C@@H](O[C@@H]2O[C@H](CO)[C@@H](O)[C@H](O)[C@H]2O)[C@H](O)[C@H]1O`, for which the inhibition in data set [3] came out at 22.3%.

As for `COc1cc(/C=C/CO)cc(OC)c1O[C@@H]1O[C@H](CO)[C@@H](O)[C@H](O)[C@H]1O`, the inhibition in data set [3] is 12.3%.
